Among the test systems are CAKI-1 renal; HCC-2998 colon; RXF 393 renal; SF-268 CNS; SN12C renal; SNB-75 CNS; ACHN renal; NCI-H226 lung; MCF7 breast.
Test in all cases: NCI anticancer screen, dose series, 48 h

The results in this text go back to PubChem BioAssay (NCI).

The structures appear in SMILES notation.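 Following 48 hours of exposure in 96-well plates, responses at five concentrations were used to interpolate endpoints linearly. At the GI50, growth is halved. At the TGI there is no net growth.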

For `COC1=C2C[C@H](O)C(C)C[C@@]2(OC)OC1=O` (some centres not stated), the TGI with CAKI-1 renal, in the test with HCC-2998 colon, in the test on RXF 393 renal, with SF-268 CNS, in the test with SN12C renal and in the test with SNB-75 CNS was above 100 µM throughout.
Turning to `O=C1C2CC=CCC2C(=O)C12CCc1ccccc12` (configuration not stated), the TGI with ACHN renal, in the test on CAKI-1 renal, with HCC-2998 colon, in the test with RXF 393 renal, in the test on SF-268 CNS and in the test on SN12C renal was above 100 µM each time. The TGI with SNB-75 CNS was above 100 µM.
On to `Nc1nc(NC2C=C(CO)C(O)C2O)c([N+](=O)[O-])c(=O)[nH]1` (configuration not stated), for which the TGI with ACHN renal, in the test with CAKI-1 renal, with HCC-2998 colon, in the test with NCI-H226 lung, in the test with RXF 393 renal and in the test on SF-268 CNS was above 100 µM throughout. The TGI with SN12C renal and with SNB-75 CNS was above 100 µM throughout.
With `COc1cc([C@H]2c3cc4c(cc3[C@H](NCc3ccc([N+](=O)[O-])cc3)C3COC(=O)[C@H]32)OCO4)cc(OC)c1O` (some centres not stated), the TGI with ACHN renal was 2.32 µM; in the test on CAKI-1 renal it was 4.58 µM; in the test with HCC-2998 colon, 3.98 µM; with NCI-H226 lung, 1.68 µM; in the test on RXF 393 renal, above 64.6 µM; in the test on SF-268 CNS it was above 25.9 µM. The TGI with SN12C renal is 4.68 µM; in the test on SNB-75 CNS it was 6.6 µM.
For `CCCCCCCCC(O)C#CC(N)=O` (configuration not stated), the TGI with ACHN renal amounted to 31 µM; with CAKI-1 renal, 32.3 µM; in the test on HCC-2998 colon it was 22.4 µM; with NCI-H226 lung it was 25.6 µM; in the test with RXF 393 renal it was 29.2 µM; with SN12C renal, 23.8 µM. In the test with SNB-75 CNS, the TGI amounted to 17.5 µM.
Consider `NC(=O)C(=Cc1ccc(CP(=O)(O)O)cc1)C(N)=O`, for which the TGI in the test with ACHN renal, in the test with CAKI-1 renal, in the test with HCC-2998 colon, with RXF 393 renal, in the test with SN12C renal and in the test on SNB-75 CNS was above 100 µM throughout.
Turning to `CCCCCCCC(=O)OCC1OC(n2cc(F)c(=O)[nH]c2=O)C(NC(=O)OCc2ccccc2)C(O)C1O` (configuration not stated), the TGI was above 100 µM in the test on ACHN renal; above 100 µM in the test on CAKI-1 renal; 52.2 µM in the test on HCC-2998 colon; above 100 µM in the test on RXF 393 renal; above 100 µM in the test with SF-268 CNS; above 100 µM in the test on SN12C renal. In the test on SNB-75 CNS, the TGI was above 100 µM.
Consider `COc1cc(C=O)c(-c2cc3c(cc2C2(C)OCCS2)OCO3)c(OC)c1OC` (configuration not stated), for which the TGI in the test with ACHN renal is above 99.1 µM; in the test on CAKI-1 renal, 71.4 µM; in the test on HCC-2998 colon, 31.2 µM; in the test with NCI-H226 lung it was 29.5 µM; with RXF 393 renal, 46.9 µM; in the test on SF-268 CNS, above 239 µM. Further, the figures for the TGI in the test with SN12C renal and with SNB-75 CNS were 49.8 µM and 21.3 µM, respectively.
For `COC(=O)c1ccc(NC(=O)c2cc(OC)c(OC)c(OC)c2)cc1`, the TGI in the test on ACHN renal was above 100 µM; in the test on HCC-2998 colon it was 6.67 µM; in the test on NCI-H226 lung, above 85.4 µM; in the test on RXF 393 renal, 77.2 µM; in the test with SF-268 CNS it was above 100 µM; in the test on SNB-75 CNS, above 100 µM.
`O=c1cc(-c2ccccc2)nc(/C=C(\O)c2ccncc2)n1-c1ccccc1`: the TGI with ACHN renal, in the test on CAKI-1 renal, with HCC-2998 colon, with NCI-H226 lung, in the test with RXF 393 renal and in the test on SF-268 CNS was above 100 µM each time. For the same molecule, the TGI with SN12C renal and in the test on SNB-75 CNS was above 100 µM throughout.
Regarding `NC(CC(=O)Nc1ccc(Cl)cc1)=Nc1ccccc1`, the TGI with ACHN renal, with CAKI-1 renal, in the test on HCC-2998 colon, in the test with NCI-H226 lung, in the test with RXF 393 renal and in the test on SF-268 CNS was above 100 µM in each case. Moreover, the TGI with SN12C renal and in the test with SNB-75 CNS was above 100 µM each time.
Consider `CCCCN=C(NC#N)N(Cc1ccccc1)Cc1ccccc1`, for which the TGI in the test with ACHN renal is 98.8 µM; in the test with CAKI-1 renal it was 66.4 µM; in the test on HCC-2998 colon it was 62.1 µM; in the test with NCI-H226 lung it was above 100 µM; with RXF 393 renal it was 65.5 µM; in the test on SF-268 CNS it was above 100 µM. Moreover, the results for the TGI in the test on SN12C renal and in the test with SNB-75 CNS were 82 µM and above 100 µM, respectively.
`CC1(C)CCC[C@]2(C)c3cc(O)ccc3CC[C@@H]12`: the GI50 in the test on ACHN renal is 18.1 µM; with CAKI-1 renal it was 19.5 µM; in the test on MCF7 breast it was 13.3 µM; with NCI-H226 lung it was 18.2 µM; with RXF 393 renal, 16.1 µM; in the test on SF-268 CNS, 16.4 µM. Besides, the GI50 in the test on SN12C renal was 17.5 µM; in the test with SNB-75 CNS, 12.4 µM. For the same molecule, the TGI in the test on ACHN renal was 33.5 µM; in the test with CAKI-1 renal, 35.9 µM; in the test with MCF7 breast it was 37.1 µM; with NCI-H226 lung, 35.4 µM; in the test with RXF 393 renal it was 35.1 µM; with SF-268 CNS it was 33.4 µM. In addition, the TGI with SN12C renal amounted to 31.3 µM; in the test on SNB-75 CNS it was 27.5 µM.
Take `N#C/C(=C\Nc1ccccn1)C(=O)c1ccco1`: the TGI in the test on ACHN renal, in the test with CAKI-1 renal, with HCC-2998 colon, in the test on MCF7 breast, in the test on NCI-H226 lung and with RXF 393 renal was above 100 µM each time. Also, the TGI in the test with SF-268 CNS, in the test on SN12C renal and in the test on SNB-75 CNS was above 100 µM each time.
As for `O=c1cc(-c2ccccc2)[nH]c2c(Cl)cccc12`, the TGI in the test with ACHN renal was above 100 µM; in the test on HCC-2998 colon, above 100 µM; in the test with NCI-H226 lung, 81 µM; with RXF 393 renal, 67.1 µM; in the test with SF-268 CNS, above 100 µM; in the test on SN12C renal, above 100 µM. The molecule further registered a TGI in the test on SNB-75 CNS of 54.8 µM.
Turning to `Cc1ccc(C(=O)N2c3ccccc3N(C)n3cccc3C2CC(=O)O)cc1` (configuration not stated), the TGI with ACHN renal, with CAKI-1 renal, in the test on HCC-2998 colon, in the test on NCI-H226 lung, in the test on RXF 393 renal and in the test on SF-268 CNS was above 100 µM in each case. Besides, the TGI in the test on SN12C renal and in the test with SNB-75 CNS was above 100 µM throughout.
